“Also recorded” adds a separate entry of the source.
Columns and labels:
DENV-2 [1] = system: DENV-2
in vitro [2] = settings: Mesocricetus auratus (hamster)
DENV-2 [3] = assay: microbe, parasite or virus in culture; settings: Dengue virus, DENV2, BHK, read-out: DENV-2 EC50
WNV [4] = assay: microbe, parasite or virus in culture; settings: West Nile virus, BHK, read-out: WNV EC50
WNV [5] = system: WNV
RSV [6] = assay: microbe, parasite or virus in culture; settings: human respiratory syncytial virus, Vero 76, read-out: RSV EC50
YFV [7] = assay: microbe, parasite or virus in culture; settings: Yellow fever virus, BHK, read-out: YFV EC50
YFV [8] = format: cell-based, Yellow Fever Virus
RSV [9] = system: RSV
in vitro [10] = settings: Cercopithecus aethiops (monkey), Vero76 CC50
YFV [11] = system: YFV
in vitro [12] = settings: Bos taurus (cattle)
CVB-5 = assay: microbe, parasite or virus in culture; format: cell-based, Coxsackievirus B5; settings: Enterovirus B, Vero 76, read-out: CVB-5 EC50
VV = assay: microbe, parasite or virus in culture; format: cell-based; settings: Orthopoxvirus vaccinia, Vero 76, read-out: VV EC50
HIV-1 = assay: microbe, parasite or virus in culture; settings: Human immunodeficiency virus 1, MT4, read-out: HIV-1 EC50
in vitro [13] = settings: human
Sb-1 = assay: microbe, parasite or virus in culture; format: cell-based, Poliovirus type-1, Sabin strain; settings: Enterovirus C, Vero 76, read-out: Sb-1 EC50
HSV-1 = assay: microbe, parasite or virus in culture; format: cell-based, human herpesvirus 1; settings: Human alphaherpesvirus 1, Vero 76, read-out: HSV-1 EC50
VSV = assay: microbe, parasite or virus in culture; format: cell-based; settings: Vesicular stomatitis virus, Vero 76, read-out: VSV EC50
BVDV [14] = assay: microbe, parasite or virus in culture; settings: Bovine viral diarrhea virus isolates and strains, MDBK, read-out: BVDV EC50
BVDV [15] = system: BVDV
Reo-1 = format: cell-based, reovirus type-1

**Q.** For `Brc1ccc(NCc2cn(-c3ccccc3)nc2-c2ccc(Br)cc2)cc1` [1g], which “SI CC50/EC50 (DENV-2)” value (DENV-2 [1]) is on record?
**A.** >4.3

**Q.** What about the CC50 (in vitro [2]) of the same compound?
**A.** > 100 µM

**Q.** And the EC50 (DENV-2 [3])?
**A.** 23 ± 6 µM

**Q.** What about the EC50 (WNV [4]) of the same compound?
**A.** 80 ± 8.5 µM

**Q.** And the “SI CC50/EC50 (WNV)” value (WNV [5])?
**A.** >1.25

**Q.** With `Clc1ccc(NCc2cn(-c3ccccc3)nc2-c2ccc(Cl)cc2)cc1` [1i] as the compound, how does the “SI CC50/EC50 (DENV-2)” value (DENV-2 [1]) read?
**A.** 5.0

**Q.** And the CC50 (in vitro [2])?
**A.** 73 ± 1 µM

**Q.** And the EC50 (DENV-2 [3])?
**A.** 14.5 ± 3.5 µM

**Q.** What about the EC50 (WNV [4]) of the same compound?
**A.** 57.5 ± 0.5 µM

**Q.** What about the “SI CC50/EC50 (WNV)” value (WNV [5]) of the same compound?
**A.** 1.3

**Q.** Which results are given for `Cc1ccc(NCc2cn(-c3ccccc3)nc2-c2ccc(Cl)cc2)cc1` [1n]?
**A.** SI CC50/EC50 (DENV-2) (DENV-2 [1]): >9.0; CC50 (in vitro [2]): > 100 µM; EC50 (DENV-2 [3]): 11.1 ± 1.6 µM; EC50 (WNV [4]): 39 ± 1 µM; SI CC50/EC50 (WNV) (WNV [5]): >2.6

**Q.** Which results are given for `Cc1ccc(NCc2cn(-c3ccccc3)nc2-c2ccc(C(F)(F)F)cc2)cc1` [1o]?
**A.** SI CC50/EC50 (DENV-2) (DENV-2 [1]): 6.2; CC50 (in vitro [2]): 88 ± 0.5 µM; EC50 (DENV-2 [3]): 14.3 ± 0.7 µM; EC50 (WNV [4]): 59 ± 1.1 µM; SI CC50/EC50 (WNV) (WNV [5]): 1.5

**Q.** Which EC50 (RSV [6]) does the source give for `O=c1cnn([C@@H]2O[C@H](CO)[C@@H](O)[C@H]2O)c(=O)[nH]1` [6-Azauridine, reference compound] here?
**A.** 1.3 ± 0.3 µM

**Q.** What about the CC50 (in vitro [2]) of the same compound?
**A.** > 100 µM

**Q.** And the EC50 (YFV [7])?
**A.** 46 ± 1.5 µM

**Q.** What about the “Effect on YFV titer, compound added post infection” value (YFV [8]) of the same compound?
**A.** lost its effectiveness when added after the infection

**Q.** And the “Effect on YFV titer, compound present in pre-treatment or during infection” value (YFV [8])?
**A.** reduced the YFV titer when present in the pre-treatment or during the 2 h of infection

**Q.** What about the “SI CC50/EC50 (RSV)” value (RSV [9]) of the same compound?
**A.** 7.2

**Q.** And the CC50 (in vitro [10])?
**A.** 9.3 ± 1.6 µM

**Q.** What does the source list for `O=S(=O)(c1ccccc1)n1cc(CNc2ccc(Br)cc2)c(-c2ccccc2)n1` [7c, 4-Bromo-N-[(3-phenyl-1-(phenylsulfonyl)-1H-pyrazol-4-yl)methyl]aniline]?
**A.** SI CC50/EC50 (YFV) (YFV [11]): >16.9; EC50 (RSV [6]): > 3 µM; CC50 (in vitro [12]): > 100 µM; EC50 (CVB-5): 24 ± 11 µM; EC50 (VV): > 85 µM; CC50 (in vitro [2]): > 100 µM; melting point: 122 °C; EC50 (HIV-1): > 20 µM; CC50 (in vitro [13]): 20 µM; EC50 (YFV [7]): 5.9 ± 0.2 µM; EC50 (Sb-1): > 85 µM; EC50 (HSV-1): > 85 µM; EC50 (VSV): > 85 µM

**Q.** Which results are given for `O=S(=O)(c1ccccc1)n1cc(CNc2ccccc2)c(-c2ccc(Br)cc2)n1` [7e, N-[(3-(4-Bromophenyl)-1-(phenylsulfonyl)-1H-pyrazol-4-yl)methyl]aniline]?
**A.** EC50 (BVDV [14]): 19.5 ± 2.1 µM; SI CC50/EC50 (BVDV) (BVDV [15]): >5.1; SI CC50/EC50 (YFV) (YFV [11]): >27.8; EC50 (RSV [6]): 17.8 ± 1.8 µM; CC50 (in vitro [12]): > 100 µM; EC50 (CVB-5): > 87 µM; EC50 (VV): > 87 µM; CC50 (in vitro [2]): > 100 µM; melting point: 110 to 111 °C; EC50 (HIV-1): 20 ± 2.4 µM; CC50 (in vitro [13]): > 100 µM; EC50 (YFV [7]): 3.6 ± 0.8 µM; Effect on YFV titer, compound added post infection (YFV [8]): achieved the highest reduction of virus titer when added 2 h post infection and maintained up to 4 h post infection; also recorded: retained its inhibitory activity when added at any time p.i; also recorded: highest reduction of virus yield was observed when 7e was added 2 h post infection and maintained up to 4 h post infection; Effect on YFV titer, compound present in pre-treatment or during infection (YFV [8]): reduced the YFV titer when present in the pre-treatment or during the 2 h of infection; EC50 (Sb-1): > 87 µM; SI CC50/EC50 (RSV) (RSV [9]): 4.9; CC50 (in vitro [10]): 87 ± 1 µM; EC50 (HSV-1): > 87 µM; EC50 (VSV): > 87 µM

**Q.** Which EC50 (Reo-1) does the source give for `C[C@@]1(O)[C@H](O)[C@@H](CO)O[C@H]1n1ccc(N)nc1=O` [NM107, 2′-C-methylcitidine] here?
**A.** 7.5 ± 1.5 µM

**Q.** And the CC50 (BHK-21 cells)?
**A.** > 100 µM

**Q.** With `C[C@@]1(O)[C@H](O)[C@@H](CO)O[C@H]1n1cnc2c(=O)[nH]c(N)nc21` [NM 108, 2′-C-methylguanosin, reference compound] as the compound, how does the “SI CC50/EC50 (DENV-2)” value (DENV-2 [1]) read?
**A.** 50.0

**Q.** And the CC50 (in vitro [2])?
**A.** 60 ± 3 µM

**Q.** And the EC50 (DENV-2 [3])?
**A.** 1.2 ± 0.1 µM

**Q.** What about the EC50 (WNV [4]) of the same compound?
**A.** 0.7 ± 0.2 µM

**Q.** What about the “SI CC50/EC50 (WNV)” value (WNV [5]) of the same compound?
**A.** 85.7

Reference: article PMC6465675, “Design, Synthesis, Antiviral Evaluation, and SAR Studies of New 1-(Phenylsulfonyl)-1H-Pyrazol−4-yl-Methylaniline Derivatives” (Frontiers in Chemistry, 2019)
